In ChEMBL document CHEMBL1155325, “Design and synthesis of (2R,3S)-iodoreboxetine analogues for SPECT imaging of the noradrenaline transporter” (Bioorg Med Chem Lett, 2009):

What was measured:
Format in all cases: tissue-based
Transporter = Transporter (Rattus norvegicus, UniProt Q63380); test: Displacement of [3H]nisoxetine from NAT in Sprague-Dawley rat brain after 4 hrs by liquid scintillation analysis
[1] = biological target: Sodium-dependent dopamine transporter (Rattus norvegicus, UniProt P23977); test: Displacement of [3H]WIN-35428 from DAT in Sprague-Dawley rat brain after 2 hrs by liquid scintillation analysis
Chain of Sodium-dependent dopamine transporter (P23977 whole entry): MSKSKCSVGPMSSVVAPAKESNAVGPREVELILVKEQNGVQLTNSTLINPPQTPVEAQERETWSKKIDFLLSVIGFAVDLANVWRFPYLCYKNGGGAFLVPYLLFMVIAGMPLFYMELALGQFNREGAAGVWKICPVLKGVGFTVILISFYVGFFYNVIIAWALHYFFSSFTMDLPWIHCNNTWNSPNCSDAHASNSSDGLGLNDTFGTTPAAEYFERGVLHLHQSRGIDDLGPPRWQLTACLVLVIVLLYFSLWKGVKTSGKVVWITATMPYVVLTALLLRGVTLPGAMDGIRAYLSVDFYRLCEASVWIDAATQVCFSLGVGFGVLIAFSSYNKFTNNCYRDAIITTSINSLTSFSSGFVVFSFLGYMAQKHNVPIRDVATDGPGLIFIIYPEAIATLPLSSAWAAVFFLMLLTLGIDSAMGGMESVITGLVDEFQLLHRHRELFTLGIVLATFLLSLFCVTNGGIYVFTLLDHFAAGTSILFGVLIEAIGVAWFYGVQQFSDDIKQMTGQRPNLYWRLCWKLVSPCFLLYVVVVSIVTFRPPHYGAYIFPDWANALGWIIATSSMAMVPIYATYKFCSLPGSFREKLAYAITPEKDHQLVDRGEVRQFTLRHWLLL

[2] = biological target: Sodium-dependent serotonin transporter (Rattus norvegicus, UniProt P31652); test: Displacement of [3H]citalopram from SERT in Sprague-Dawley rat brain after 2 hrs by liquid scintillation analysis
Chain of Sodium-dependent serotonin transporter (P31652 whole entry): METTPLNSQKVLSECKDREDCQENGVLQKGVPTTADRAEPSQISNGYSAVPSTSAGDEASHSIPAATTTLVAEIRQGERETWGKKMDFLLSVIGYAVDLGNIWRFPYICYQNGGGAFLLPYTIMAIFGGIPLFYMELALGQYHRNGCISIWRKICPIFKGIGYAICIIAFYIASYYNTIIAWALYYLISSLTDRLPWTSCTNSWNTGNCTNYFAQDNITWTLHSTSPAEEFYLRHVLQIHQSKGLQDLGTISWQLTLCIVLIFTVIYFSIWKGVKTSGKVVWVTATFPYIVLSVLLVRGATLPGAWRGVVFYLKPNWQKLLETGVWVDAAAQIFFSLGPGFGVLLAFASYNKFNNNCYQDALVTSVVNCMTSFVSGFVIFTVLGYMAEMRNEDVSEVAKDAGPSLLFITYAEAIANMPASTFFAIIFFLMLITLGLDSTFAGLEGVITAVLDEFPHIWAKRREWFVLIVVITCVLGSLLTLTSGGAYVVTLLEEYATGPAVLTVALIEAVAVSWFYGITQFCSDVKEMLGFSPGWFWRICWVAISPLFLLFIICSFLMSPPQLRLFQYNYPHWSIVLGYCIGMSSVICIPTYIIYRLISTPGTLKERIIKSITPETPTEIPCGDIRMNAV

Chain of Transporter (Q63380 whole entry): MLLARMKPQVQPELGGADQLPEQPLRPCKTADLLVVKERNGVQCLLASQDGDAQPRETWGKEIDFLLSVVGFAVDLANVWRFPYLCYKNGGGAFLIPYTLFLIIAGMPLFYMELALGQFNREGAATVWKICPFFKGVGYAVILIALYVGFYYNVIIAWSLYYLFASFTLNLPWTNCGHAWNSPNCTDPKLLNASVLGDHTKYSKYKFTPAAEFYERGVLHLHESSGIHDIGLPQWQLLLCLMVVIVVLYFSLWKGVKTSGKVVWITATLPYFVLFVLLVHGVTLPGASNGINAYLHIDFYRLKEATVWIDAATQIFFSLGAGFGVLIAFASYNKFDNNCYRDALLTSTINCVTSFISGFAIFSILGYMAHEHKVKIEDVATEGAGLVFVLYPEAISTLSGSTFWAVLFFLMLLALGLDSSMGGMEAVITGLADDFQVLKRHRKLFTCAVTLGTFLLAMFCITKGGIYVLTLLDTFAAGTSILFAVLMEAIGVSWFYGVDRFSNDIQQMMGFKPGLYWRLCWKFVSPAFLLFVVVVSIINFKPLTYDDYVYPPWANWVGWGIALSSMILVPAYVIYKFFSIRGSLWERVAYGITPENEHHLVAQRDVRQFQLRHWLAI

| Structure (SMILES) | Ki (Transporter) | Ki [1] | Ki [2] |
| --- | --- | --- | --- |
| Ic1ccccc1O[C@@H](c1ccccc1)[C@@H]1CNCCO1 | 0.84 nM | – | – |
| Ic1cccc(O[C@@H](c2ccccc2)[C@H]2CNCCO2)c1 | 1700 nM | 1900 nM | 154 nM |
| Ic1ccc(O[C@@H](c2ccccc2)[C@H]2CNCCO2)cc1 | 1100 nM | 2100 nM | 34.5 nM |
| Ic1ccccc1O[C@@H](c1ccccc1)[C@H]1CNCCO1 | 8.4 nM | 526 nM | 51.5 nM |
| CCOc1ccccc1O[C@@H](c1ccc(I)cc1)[C@@H]1CNCCO1 | 53.8 nM | – | – |
| CCOc1ccccc1O[C@@H](c1ccc(I)cc1)[C@H]1CNCCO1 | 58.2 nM | – | – |
